Assay results from DBAASP.
Converted amounts (≈) assume the structure as drawn. “And” between values parts separate entries of the source, which are not always exact repeats. Equal entries are not always repeated.

Columns and labels:
Experiment in all cases: ≥ marks a high value that may be exact or a test limit, other limits are often not marked, values filed in µg/mL are converted to µM
[1] = system: Acinetobacter baumannii ATCC 15308
Citrobacter sp. = system: Citrobacter sp.
Enterobacter cloacae = system: Enterobacter cloacae
[2] = system: Escherichia coli ATCC 25922
Klebsiella pneumoniae = system: Klebsiella pneumoniae
[3] = system: Pseudomonas aeruginosa ATCC 15442
[4] = system: Staphylococcus aureus ATCC 25923
Staphylococcus aureus = system: Staphylococcus aureus
Streptococcus pneumoniae = system: Streptococcus pneumoniae
[5] = system: Bacillus subtilis ATCC 6633
[6] = system: Candida albicans ATCC 10231
[7] = system: Candida parapsilosis ATCC 22019
Cryptococcus neoformans = system: Cryptococcus neoformans
[8] = system: Escherichia coli ATCC 9637
[9] = system: Klebsiella pneumoniae ATCC 27736
[10] = system: Pseudomonas aeruginosa ATCC BAA-427
[11] = system: Staphylococcus aureus ATCC 29213
[12] = system: Staphylococcus aureus ATCC 33592
[13] = system: Staphylococcus aureus ATCC 700698
[14] = system: Staphylococcus aureus ATCC 700699
[15] = system: Staphylococcus aureus ATCC BAA-44
[16] = system: Escherichia coli KpC+001812446
[17] = system: Klebsiella pneumoniae ATCC 13883
[18] = system: Klebsiella pneumoniae KpC+001825971
Bacillus subtilis 168 = system: Bacillus subtilis 168
[19] = system: Candida albicans F7-39/IDE99
Escherichia coli B = system: Escherichia coli B
[20] = system: Micrococcus luteus CCM 144
[21] = system: Pseudomonas aeruginosa ATCC 27853
Pseudomonas aeruginosa = system: Pseudomonas aeruginosa
Staphylococcus aureus 1 = system: Staphylococcus aureus 1
[22] = system: Staphylococcus aureus ATCC 43300
[23] = system: Staphylococcus epidermidis
Escherichia coli C600 = system: Escherichia coli C600
[24] = system: Pseudomonas aeruginosa PAO1
[25] = system: Staphylococcus aureus 209P

CC[C@H](C)[C@H](NC(=O)[C@H](CCSC)NC(=O)[C@H](C)NC(=O)[C@@H]1CCCN1C(=O)[C@@H](NC(=O)[C@@H]1CCCN1C(=O)[C@H](CCCCN)NC(=O)[C@@H](NC(=O)[C@H](CC(C)C)NC(=O)CNC(=O)CNC(=O)[C@H](CC(C)C)NC(=O)[C@@H](N)Cc1ccccc1)[C@@H](C)CC)C(C)C)C(=O)N[C@H]1CSSC[C@@H](C(=O)O)NC(=O)[C@H](CCCCN)NC(=O)[C@H](CCCCN)NC(=O)[C@H](CCCN=C(N)N)NC(=O)[C@H](C(C)C)NC(=O)[C@H](C)NC1=O [FLGGLIKPVPAMICAVRKKC]
MIC [1]: ≥ 117 µM | MIC (Citrobacter sp.): ≥ 117 µM | MIC (Enterobacter cloacae): ≥ 117 µM | MIC [2]: > 117 µM | MIC (Klebsiella pneumoniae): > 117 µM | MIC [3]: ≥ 117 µM | MIC [4]: > 117 µM | MIC (Staphylococcus aureus): > 117 µM | MIC (Streptococcus pneumoniae): ≥ 117 µM

CC[C@H](C)[C@H](NC(=O)[C@H](CC(C)C)NC(=O)CNC(=O)CNC(=O)[C@H](CC(C)C)NC(=O)[C@@H](N)Cc1ccccc1)C(=O)N[C@@H](CCCCN)C(=O)N[C@@H](Cc1c[nH]c2ccccc12)C(=O)N[C@@H](CCCCN)C(=O)N[C@@H](Cc1c[nH]c2ccccc12)C(=O)N1CCC[C@H]1C(=O)N[C@@H](Cc1c[nH]c2ccccc12)C(=O)N[C@@H](Cc1c[nH]c2ccccc12)C(=O)N1CCC[C@H]1C(=O)N[C@@H](Cc1c[nH]c2ccccc12)C(=O)N[C@@H](CCCN=C(N)N)C(=O)N[C@@H](CCCN=C(N)N)C(N)=O [FLGGLIKWKWPWWPWRR]
MIC [1]: 13.5 µM (≈ 31.2 µg/mL) | MIC (Citrobacter sp.): ≥ 108 µM | MIC (Enterobacter cloacae): ≥ 108 µM | MIC [2]: 3.38 µM (≈ 7.81 µg/mL) | MIC (Klebsiella pneumoniae): > 108 µM | MIC [3]: 13.5 µM (≈ 31.2 µg/mL) | MIC [4]: 3.38 µM (≈ 7.81 µg/mL) | MIC (Staphylococcus aureus): 3.38 µM (≈ 7.81 µg/mL) | MIC (Streptococcus pneumoniae): 3.38 µM (≈ 7.81 µg/mL)

CC[C@H](C)[C@H](NC(=O)[C@H](CCCN=C(N)N)NC(=O)CNC(=O)[C@H](CC(C)C)NC(=O)[C@H](Cc1ccccc1)NC(=O)[C@H](CCCCN)NC(=O)[C@H](CO)NC(=O)[C@H](Cc1ccccc1)NC(=O)[C@H](Cc1c[nH]c2ccccc12)NC(=O)[C@H](CCCCN)NC(=O)[C@@H](NC(=O)[C@@H](N)Cc1ccccc1)C(C)C)C(=O)N[C@@H](CC(C)C)C(N)=O [FVKWFSKFLGRIL]
MIC [5]: 7.6 µM (≈ 12.5 µg/mL) | MIC [6]: 6 µM (≈ 9.84 µg/mL) | MIC [7]: 6 µM (≈ 9.84 µg/mL) | MIC (Cryptococcus neoformans): 3 µM (≈ 4.92 µg/mL) | MIC [2]: 3.8 µM (≈ 6.23 µg/mL) | MIC [8]: 6.25 µM (≈ 10.3 µg/mL) | MIC [9]: 7.6 µM (≈ 12.5 µg/mL) | MIC [10]: 6.8 µM (≈ 11.2 µg/mL) | MIC [4]: 3.8 µM and 7.6 µM | MIC [11]: 2 µM (≈ 3.28 µg/mL) | MIC [12]: 2 µM (≈ 3.28 µg/mL) | MIC [13]: 2 µM (≈ 3.28 µg/mL) | MIC [14]: 2 µM (≈ 3.28 µg/mL) | MIC [15]: 2 µM (≈ 3.28 µg/mL)

CC[C@H](C)[C@H](NC(=O)[C@H](CCCCN)NC(=O)[C@H](CCCCN)NC(=O)[C@H](Cc1ccccc1)NC(=O)[C@H](CC(C)C)NC(=O)[C@H](CCCCN)NC(=O)[C@H](Cc1c[nH]c2ccccc12)NC(=O)[C@H](CCCCN)NC(=O)[C@H](Cc1cnc[nH]1)NC(=O)CNC(=O)CN)C(=O)NCC(=O)N[C@@H](C)C(=O)N[C@H](C(=O)N[C@@H](CC(C)C)C(=O)N[C@@H](CCCCN)C(=O)N[C@H](C(=O)N[C@@H](CC(C)C)C(=O)O)C(C)C)C(C)C [GGHKWKLFKKIGAVLKVL]
MIC [2]: 4 µM (≈ 8.09 µg/mL) | MIC [16]: 8 µM (≈ 16.2 µg/mL) | MIC [17]: ≥ 32 µM | MIC [18]: 8 µM (≈ 16.2 µg/mL)

CC[C@H](C)[C@H](NC(=O)CN)C(=O)N[C@@H](CC(C)C)C(=O)N[C@@H](CO)C(=O)N[C@@H](CO)C(=O)N[C@@H](Cc1c[nH]c2ccccc12)C(=O)N[C@@H](CC(C)C)C(=O)N[C@@H](CCCCN)C(=O)N[C@@H](CCCCN)C(=O)N[C@@H](CC(C)C)C(=O)N[C@@H](CCCCN)C(=O)N[C@@H](CCCCN)C(=O)N[C@H](C(=O)N[C@H](C(=O)N[C@@H](C)C(=O)N[C@@H](CCCCN)C(N)=O)[C@@H](C)CC)[C@@H](C)CC [GILSSWLKKLKKIIAK]
MIC (Bacillus subtilis 168): 7 µM (≈ 12.8 µg/mL) | MIC [19]: 17 µM (≈ 31 µg/mL) | MIC (Escherichia coli B): 11 µM (≈ 20.1 µg/mL) | MIC [20]: 3 µM (≈ 5.48 µg/mL) | MIC [21]: 4 µM (≈ 7.3 µg/mL) | MIC (Pseudomonas aeruginosa): 5.9 µM (≈ 10.8 µg/mL) | MIC (Staphylococcus aureus 1): 6.6 µM (≈ 12 µg/mL) | MIC [22]: 16 µM (≈ 29.2 µg/mL) | MIC (Staphylococcus aureus): 16 µM (≈ 29.2 µg/mL) | MIC [23]: 2 µM (≈ 3.65 µg/mL)

CC[C@H](C)[C@H](NC(=O)CN)C(=O)N[C@@H](CCSC)C(=O)N[C@@H](CO)C(=O)N[C@@H](CO)C(=O)N[C@@H](CC(C)C)C(=O)N[C@@H](CCSC)C(=O)N[C@@H](CCCCN)C(=O)N[C@@H](CCCCN)C(=O)N[C@@H](CC(C)C)C(=O)N[C@@H](C)C(=O)N[C@@H](C)C(=O)N[C@@H](Cc1cnc[nH]1)C(=O)N[C@H](C(=O)N[C@@H](CCCCN)C(=O)N[C@@H](CCCCN)C(N)=O)[C@@H](C)CC [GIMSSLMKKLAAHIKK]
MIC (Bacillus subtilis 168): 7 µM (≈ 12.3 µg/mL) | MIC [19]: 5 µM (≈ 8.78 µg/mL) | MIC (Escherichia coli B): 20 µM (≈ 35.1 µg/mL) | MIC [20]: 3 µM (≈ 5.27 µg/mL) | MIC [21]: 23 µM (≈ 40.4 µg/mL) | MIC (Pseudomonas aeruginosa): 46 µM (≈ 80.7 µg/mL) | MIC (Staphylococcus aureus 1): ≥ 77 µM | MIC [22]: 85 µM (≈ 149 µg/mL) | MIC (Staphylococcus aureus): 90 µM (≈ 158 µg/mL) | MIC [23]: 11 µM (≈ 19.3 µg/mL)

CC(C)[C@@H]1NC(=O)CNC(=O)[C@H](CCCN=C(N)N)NC(=O)[C@H](C(C)C)NC(=O)[C@H](CCCN=C(N)N)NC(=O)[C@H](C)NC(=O)[C@H](CCCN=C(N)N)NC(=O)[C@H](C(C)C)NC(=O)[C@@H](NC(=O)[C@H](Cc2c[nH]c3ccccc23)NC(=O)[C@@H](N)CCCN=C(N)N)CSSC[C@@H](C(=O)N[C@@H](Cc2c[nH]c3ccccc23)C(=O)O)NC(=O)[C@H](CCCN=C(N)N)NC(=O)[C@H](CCCN=C(N)N)NC(=O)[C@H](Cc2ccc(O)cc2)NC(=O)[C@H](CCCN=C(N)N)NC1=O [RWCVRARVRGVRYRRCW]
MIC (Escherichia coli C600): 1.56 µM (≈ 3.55 µg/mL) | MIC [24]: 12.5 µM (≈ 28.5 µg/mL) | MIC [25]: 1.56 µM (≈ 3.55 µg/mL)
